Assay results reported in patent US20090304803A1, “Compositions and methods relating to target-specific photodynamic therapy” (The General Hospital Corporation, priority 2005, published 2009).

What was measured:
ErbB3 receptor = molecular target: T1, ErbB3 receptor (Homo sapiens, UniProt P21860); test: ErbB3-specific aptamer localization in target and non-target cells, confocal microscopy; format: cell-based; conditions: 2 uM, 15 minutes at 4° C. then 20 minutes at 37° C.
T1 construct: endogenous in cells; host or cells: OVCAR3 (target); PA-1 (non-expressing control)
T1 sequence (P21860 20-1342): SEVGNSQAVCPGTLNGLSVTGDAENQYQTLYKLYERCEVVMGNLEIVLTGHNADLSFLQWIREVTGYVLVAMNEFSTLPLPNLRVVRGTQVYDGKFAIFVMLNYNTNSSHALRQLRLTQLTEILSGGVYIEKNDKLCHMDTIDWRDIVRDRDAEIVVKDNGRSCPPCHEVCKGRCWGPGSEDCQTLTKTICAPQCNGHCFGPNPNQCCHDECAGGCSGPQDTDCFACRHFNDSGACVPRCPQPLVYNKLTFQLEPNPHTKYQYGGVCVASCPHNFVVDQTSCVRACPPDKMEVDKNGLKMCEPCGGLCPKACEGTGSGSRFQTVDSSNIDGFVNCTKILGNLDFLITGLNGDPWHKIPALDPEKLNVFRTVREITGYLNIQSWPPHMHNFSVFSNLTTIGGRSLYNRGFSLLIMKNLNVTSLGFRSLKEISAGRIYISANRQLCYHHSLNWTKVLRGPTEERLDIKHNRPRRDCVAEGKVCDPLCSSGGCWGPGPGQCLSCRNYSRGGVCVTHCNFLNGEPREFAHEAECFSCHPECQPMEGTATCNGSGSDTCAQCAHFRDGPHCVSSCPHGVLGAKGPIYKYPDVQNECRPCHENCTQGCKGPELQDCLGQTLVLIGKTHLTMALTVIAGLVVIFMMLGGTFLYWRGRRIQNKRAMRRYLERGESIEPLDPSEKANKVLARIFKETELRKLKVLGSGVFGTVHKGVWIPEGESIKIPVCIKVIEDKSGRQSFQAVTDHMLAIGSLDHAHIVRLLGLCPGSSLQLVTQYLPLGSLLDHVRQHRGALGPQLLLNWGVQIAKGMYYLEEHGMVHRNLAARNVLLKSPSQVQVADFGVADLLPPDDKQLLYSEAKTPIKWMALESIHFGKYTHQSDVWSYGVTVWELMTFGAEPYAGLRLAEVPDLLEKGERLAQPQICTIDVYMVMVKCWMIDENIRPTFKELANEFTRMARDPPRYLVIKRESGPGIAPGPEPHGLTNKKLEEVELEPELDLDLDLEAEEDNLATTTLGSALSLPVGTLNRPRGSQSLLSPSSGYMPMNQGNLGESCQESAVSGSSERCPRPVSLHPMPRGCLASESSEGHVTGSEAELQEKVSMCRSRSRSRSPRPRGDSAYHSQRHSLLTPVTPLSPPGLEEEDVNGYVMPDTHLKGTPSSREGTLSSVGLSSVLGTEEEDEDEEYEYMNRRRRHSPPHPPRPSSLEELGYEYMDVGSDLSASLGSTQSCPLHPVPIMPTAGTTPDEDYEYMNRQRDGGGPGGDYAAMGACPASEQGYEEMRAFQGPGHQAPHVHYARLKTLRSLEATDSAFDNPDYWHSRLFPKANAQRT
Experimental: Both ErbB3-expressing cells (OVCAR3) and non-expressing cells (PA-1) were incubated with the ErbB3-specific aptamer and the cells were imaged using a confocal microscope. OVCAR3 (target) and PA-1 (non-target) cells were incubated with 2 uM ErbB3 specific aptamer (tagged on the 5′ end with Fluoroscein) for 15 minutes at 4° C. and then for 20 minutes at 37° C. The cells were then imaged using a confocal laser scanning microscope with 488 nm excitation. The fluorescence was collected using a 515 nm long pass filter.

MCF7 cells = conditions: cited from earlier work
HER2 = conditions: cited from earlier work
[1] = water; cited from earlier work

ErbB3-specific aptamer: aptamer that recognizes the ErbB3 receptor, sequence from Chen et al., PNAS 2003; labeled at 5′ end with Fluoroscein (DNA CAGCGAAAGUUGCGUAUGGGUCACAUCGCAGGCACAUGUCAUCUGGGCG; 5' fluorescein label, chemistry of the aptamer otherwise not given here)
aptamer localization, OVCAR3 (target) versus PA-1 (non-target) (ErbB3 receptor): localized specifically to the OVCAR3 cell line | hrg-induced growth response of MCF7 cells (MCF7 cells): inhibited | hrg-dependent tyrosine phosphorylation of HER2 (HER2): inhibited

chlorin e6 monoethylendiamine monamide [CMA]
solubility [1]: soluble in water
